#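 These data come from cells grown in 96-well plates and exposed to compound for 48 hours at five concentrations. At the TGI there is no net growth.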
# Columns and labels:
# Assay in all cases: NCI tumour cell line growth inhibition, 48 h
# 786-0 renal = test system: 786-0 renal
# A498 renal = test system: A498 renal
# A549 NSCLC = test system: A549 NSCLC
# ACHN renal = test system: ACHN renal
# BT-549 breast = test system: BT-549 breast
# CAKI-1 renal = test system: CAKI-1 renal
# CCRF-CEM leukemia = test system: CCRF-CEM leukemia
# COLO 205 colon = test system: COLO 205 colon
# DU-145 prostate = test system: DU-145 prostate
# EKVX NSCLC = test system: EKVX NSCLC
# HCC-2998 colon = test system: HCC-2998 colon
# HCT-116 colon = test system: HCT-116 colon
# HCT-15 colon = test system: HCT-15 colon
# HL-60(TB) leukemia = test system: HL-60(TB) leukemia
# HOP-62 NSCLC = test system: HOP-62 NSCLC
# HOP-92 NSCLC = test system: HOP-92 NSCLC
# HS 578T breast = test system: HS 578T breast
# HT29 colon = test system: HT29 colon
# IGROV1 ovarian = test system: IGROV1 ovarian
# K-562 leukemia = test system: K-562 leukemia
# KM12 colon = test system: KM12 colon
# LOX IMVI melanoma = test system: LOX IMVI melanoma
# M14 melanoma = test system: M14 melanoma
# MALME-3M melanoma = test system: MALME-3M melanoma
# MCF7 breast = test system: MCF7 breast
# MDA-MB-231 breast = test system: MDA-MB-231 breast
# MDA-MB-435 = test system: MDA-MB-435
# MDA-N = test system: MDA-N
# NCI-H226 lung = test system: NCI-H226 lung
# NCI-H23 lung = test system: NCI-H23 lung
# NCI-H460 lung = test system: NCI-H460 lung
# NCI/ADR-RES ovarian = test system: NCI/ADR-RES ovarian
# OVCAR-3 ovarian = test system: OVCAR-3 ovarian
# OVCAR-4 ovarian = test system: OVCAR-4 ovarian
# OVCAR-5 ovarian = test system: OVCAR-5 ovarian
# OVCAR-8 ovarian = test system: OVCAR-8 ovarian
# PC-3 prostate = test system: PC-3 prostate
# RPMI-8226 leukemia = test system: RPMI-8226 leukemia
# RXF 393 renal = test system: RXF 393 renal
# SF-268 CNS = test system: SF-268 CNS
# SF-295 CNS = test system: SF-295 CNS
# SF-539 CNS = test system: SF-539 CNS
# SK-MEL-2 melanoma = test system: SK-MEL-2 melanoma
# SK-MEL-28 melanoma = test system: SK-MEL-28 melanoma
# SK-MEL-5 melanoma = test system: SK-MEL-5 melanoma
# SK-OV-3 ovarian = test system: SK-OV-3 ovarian
# SN12C renal = test system: SN12C renal
# SNB-19 CNS = test system: SNB-19 CNS
# SNB-75 CNS = test system: SNB-75 CNS
# SR leukemia = test system: SR leukemia
# SW-620 colon = test system: SW-620 colon
# T-47D breast = test system: T-47D breast
# TK-10 renal = test system: TK-10 renal
# U251 CNS = test system: U251 CNS
# UACC-257 melanoma = test system: UACC-257 melanoma
# UACC-62 melanoma = test system: UACC-62 melanoma
# UO-31 renal = test system: UO-31 renal
# MOLT-4 leukemia = test system: MOLT-4 leukemia
# NCI-H522 lung = test system: NCI-H522 lung
smiles,measurement,setting,value
CC[C@@]1(O)C(=O)OCc2c1cc1n(c2=O)Cc2c-1nc1ccccc1c2/C=N\NC(=O)C1CCCN1 (some centres not stated),TGI,786-0 renal,8.01 µM
same,TGI,A498 renal,2.58 µM
same,TGI,A549 NSCLC,> 100 µM
same,TGI,ACHN renal,1.02 µM
same,TGI,BT-549 breast,> 100 µM
same,TGI,CAKI-1 renal,> 23.5 µM
same,TGI,CCRF-CEM leukemia,> 100 µM
same,TGI,COLO 205 colon,> 100 µM
same,TGI,DU-145 prostate,> 100 µM
same,TGI,EKVX NSCLC,> 100 µM
same,TGI,HCC-2998 colon,> 53.7 µM
same,TGI,HCT-116 colon,21.2 µM
same,TGI,HCT-15 colon,> 61.9 µM
same,TGI,HL-60(TB) leukemia,> 100 µM
same,TGI,HOP-62 NSCLC,2.16 µM
same,TGI,HOP-92 NSCLC,21.2 µM
same,TGI,HS 578T breast,> 100 µM
same,TGI,HT29 colon,> 100 µM
same,TGI,IGROV1 ovarian,> 96.6 µM
same,TGI,K-562 leukemia,> 100 µM
same,TGI,KM12 colon,> 44.6 µM
same,TGI,LOX IMVI melanoma,2.67 µM
same,TGI,M14 melanoma,5.81 µM
same,TGI,MALME-3M melanoma,> 89.4 µM
same,TGI,MCF7 breast,18.4 µM
same,TGI,MDA-MB-231 breast,> 100 µM
same,TGI,MDA-MB-435,> 100 µM
same,TGI,MDA-N,> 100 µM
same,TGI,NCI-H226 lung,2.8 µM
same,TGI,NCI-H23 lung,0.965 µM
same,TGI,NCI-H460 lung,10.5 µM
same,TGI,NCI/ADR-RES ovarian,20.5 µM
same,TGI,OVCAR-3 ovarian,43.5 µM
same,TGI,OVCAR-4 ovarian,> 100 µM
same,TGI,OVCAR-5 ovarian,> 73.2 µM
same,TGI,OVCAR-8 ovarian,10.9 µM
same,TGI,PC-3 prostate,> 100 µM
same,TGI,RPMI-8226 leukemia,> 59.7 µM
same,TGI,RXF 393 renal,2.1 µM
same,TGI,SF-268 CNS,3.96 µM
same,TGI,SF-295 CNS,18.6 µM
same,TGI,SF-539 CNS,0.318 µM
same,TGI,SK-MEL-2 melanoma,58.4 µM
same,TGI,SK-MEL-28 melanoma,> 100 µM
same,TGI,SK-MEL-5 melanoma,2.25 µM
same,TGI,SK-OV-3 ovarian,> 100 µM
same,TGI,SN12C renal,> 48.2 µM
same,TGI,SNB-19 CNS,2.5 µM
same,TGI,SNB-75 CNS,1.8 µM
same,TGI,SR leukemia,1.73 µM
same,TGI,SW-620 colon,> 73.8 µM
same,TGI,T-47D breast,> 100 µM
same,TGI,TK-10 renal,> 100 µM
same,TGI,U251 CNS,11.2 µM
same,TGI,UACC-257 melanoma,> 95.4 µM
same,TGI,UACC-62 melanoma,0.653 µM
same,TGI,UO-31 renal,8.27 µM
O=C1c2cc(Cl)ccc2NC(=NC2CCCC2)C2CSCN12 (configuration not stated),TGI,786-0 renal,> 100 µM
same,TGI,A498 renal,> 100 µM
same,TGI,A549 NSCLC,> 100 µM
same,TGI,ACHN renal,> 100 µM
same,TGI,BT-549 breast,> 100 µM
same,TGI,CAKI-1 renal,> 100 µM
same,TGI,CCRF-CEM leukemia,> 100 µM
same,TGI,COLO 205 colon,> 100 µM
same,TGI,DU-145 prostate,> 100 µM
same,TGI,EKVX NSCLC,> 100 µM
same,TGI,HCC-2998 colon,> 100 µM
same,TGI,HCT-116 colon,> 100 µM
same,TGI,HCT-15 colon,> 100 µM
same,TGI,HOP-62 NSCLC,> 100 µM
same,TGI,HS 578T breast,> 100 µM
same,TGI,HT29 colon,> 100 µM
same,TGI,IGROV1 ovarian,> 100 µM
same,TGI,K-562 leukemia,> 100 µM
same,TGI,KM12 colon,> 100 µM
same,TGI,LOX IMVI melanoma,> 100 µM
same,TGI,M14 melanoma,> 100 µM
same,TGI,MALME-3M melanoma,> 100 µM
same,TGI,MCF7 breast,> 100 µM
same,TGI,MDA-MB-231 breast,> 100 µM
same,TGI,MDA-MB-435,> 100 µM
same,TGI,MDA-N,> 100 µM
same,TGI,MOLT-4 leukemia,> 100 µM
same,TGI,NCI-H226 lung,> 100 µM
same,TGI,NCI-H460 lung,> 100 µM
same,TGI,NCI-H522 lung,> 100 µM
same,TGI,NCI/ADR-RES ovarian,> 100 µM
same,TGI,OVCAR-3 ovarian,> 100 µM
same,TGI,OVCAR-4 ovarian,> 100 µM
same,TGI,OVCAR-5 ovarian,> 100 µM
same,TGI,OVCAR-8 ovarian,> 100 µM
same,TGI,PC-3 prostate,> 100 µM
same,TGI,RPMI-8226 leukemia,> 100 µM
same,TGI,RXF 393 renal,> 100 µM
same,TGI,SF-268 CNS,> 100 µM
same,TGI,SF-295 CNS,> 100 µM
same,TGI,SK-MEL-2 melanoma,> 100 µM
same,TGI,SK-MEL-28 melanoma,> 100 µM
same,TGI,SK-MEL-5 melanoma,> 100 µM
same,TGI,SK-OV-3 ovarian,> 100 µM
same,TGI,SN12C renal,> 100 µM
same,TGI,SNB-19 CNS,> 100 µM
same,TGI,SNB-75 CNS,> 100 µM
same,TGI,SR leukemia,> 100 µM
same,TGI,SW-620 colon,> 100 µM
same,TGI,T-47D breast,> 100 µM
same,TGI,TK-10 renal,> 100 µM
same,TGI,U251 CNS,> 100 µM
same,TGI,UACC-257 melanoma,> 100 µM
same,TGI,UACC-62 melanoma,> 100 µM
same,TGI,UO-31 renal,> 100 µM

# Reference: PubChem BioAssay (NCI)
